Experiment: mn = molality of the nth substance listed, in mol/kg
Conditions: 85 kPa, Liquid; for viscosity: Falling or rolling sphere viscometry; for speed of sound: Frequency=3 MHz, Single path-length method; for mass density: Vibrating tube method

O=C(CO)[C@@H](O)[C@H](O)[C@H](O)CO [D-fructose] + O
Conditions | mass density [kg/m3] | speed of sound [m/s] | viscosity [mPa·s]
288.15 K, m1 = 0.0498 | 1002.61 | – | 1.163
288.15 K, m1 = 0.1521 | – | – | 1.224
288.15 K, m1 = 0.2488 | 1016.24 | 1484.3 | 1.274
288.15 K, m1 = 0.3494 | 1022.9 | 1491.6 | 1.335
288.15 K, m1 = 0.4476 | 1029.24 | 1498.6 | 1.394
288.15 K, m1 = 0.5483 | 1035.58 | – | 1.465
288.15 K, m1 = 0.6491 | 1041.8 | 1512.6 | 1.529
298.15 K, m1 = 0.0498 | 1000.49 | – | –
298.15 K, m1 = 0.1521 | – | 1506.7 | 0.964
298.15 K, m1 = 0.2488 | 1013.83 | 1513.1 | 0.993
298.15 K, m1 = 0.3494 | 1020.36 | 1519.4 | 1.038
298.15 K, m1 = 0.4476 | 1026.59 | 1525.6 | 1.08
298.15 K, m1 = 0.5483 | 1032.83 | 1532 | 1.133
298.15 K, m1 = 0.6491 | 1038.95 | 1538.4 | 1.178
308.15 K, m1 = 0.0498 | 997.41 | – | –
308.15 K, m1 = 0.1521 | 1004.25 | 1528.8 | 0.774
308.15 K, m1 = 0.2488 | – | 1534.4 | 0.804
308.15 K, m1 = 0.3494 | 1016.98 | 1540.3 | 0.836
308.15 K, m1 = 0.4476 | 1023.1 | 1546 | 0.87
308.15 K, m1 = 0.5483 | 1029.27 | 1551.3 | 0.909
308.15 K, m1 = 0.6491 | 1035.3 | 1556.9 | 0.941
318.15 K, m1 = 0.0498 | 993.54 | – | 0.624
318.15 K, m1 = 0.1521 | 1000.27 | – | 0.648
318.15 K, m1 = 0.2488 | – | 1549.8 | 0.67
318.15 K, m1 = 0.3494 | 1012.8 | 1555 | 0.699
318.15 K, m1 = 0.4476 | 1018.84 | 1559.9 | 0.718
318.15 K, m1 = 0.5483 | 1024.89 | 1565.3 | 0.747
318.15 K, m1 = 0.6491 | 1030.8 | 1570.3 | 0.777
